Our source for the inhibition, IC50 and Activity values is ChEMBL document CHEMBL1773019, “Antifibrotic constituents of Alnus firma on hepatic stellate cells” (Bioorg Med Chem Lett, 2011).

Broadly, the inhibition is the relative decrease from the control value, in per cent. A high value points to strong suppression. The IC50 is the concentration at which inhibition is half-maximal.

Activity calls are given as the source filed them. No cut-off for these calls is given here.

A short description of data set [1]: Inhibition of rat HSC-T6 cell proliferation at 100 ug/ml after 48 hrs by BrdU incorporation assay. Type of data set: functional. The following applies: HSC-T6, 48 h.
The nature of data set [2]: Antifibrotic activity against rat HSC-T6 cells assessed as inhibition of proliferation after 48 hrs by BrdU incorporation assay. Type of data set: functional, cell-based. To be noted: HSC-T6, 48 h. (In general: Uptake of a labelled nucleoside into DNA is a usual measure of proliferation.)
Data set [3] concerns HSC-T6. Nature of the data set: Decrease in collagen content in rat HSC-T6 cells at 10 to 100 uM after 48 hrs by sirius red-based colorimetric assay. The format is functional, cell-based.
Data set [4] can be described thus: Cytotoxicity against rat HSC-T6 cells assessed as decrease in LDH release. The format is cell-based. (Release of lactate dehydrogenase indicates damage to the cell membrane.)
The test system of data set [5] is HSC-T6. Nature of the data set: Induction of cell death in rat HSC-T6 cells assessed as decrease in cell viability after 48 hrs by MTT assay. Type of data set: functional, cell-based. Background: Tetrazolium assays rely on reduction of a dye to a coloured formazan, in cell work by metabolically active cells.
A short description of data set [6]: Induction of apoptosis in rat HSC-T6 cells assessed as increase in caspase-3/7 activity at 10 to 100 ug/ml after 24 to 48 hrs. The format is functional.
The subject of data set [7] is HSC-T6. In words: Induction of cell death in rat HSC-T6 cells assessed as decrease in cell viability at 100 uM by MTT assay. Type of data set: functional, cell-based. To be noted: TDE = time-dependent effect.
Data set [8] deals with HSC-T6. In words: Antiproliferative activity against rat HSC-T6 cells at 10 to 100 ug/ml after 24 to 48 hrs by BrdU incorporation assay. The format is functional, cell-based.

As for `OC[C@@]1(O)CO[C@@H](OC[C@H]2O[C@@H](O[C@H](CCCCc3ccc(O)cc3)CCc3ccc(O)cc3)[C@H](O)[C@@H](O)[C@@H]2O)[C@@H]1O`, the inhibition at 100 µg/mL in data set [1] turned out to be 22.7%. Further, the IC50 in data set [2] was 39.1 µM.
On to `O=C(O[C@@H]1Cc2c(O)cc(O)cc2O[C@@H]1c1cc(O)c(O)c(O)c1)c1cc(O)c(O)c(O)c1` [EPIGALOCATECHIN GALLATE], for which the half-inhibitory concentration (IC50) in data set [2] was 9.9 µM.
Take `O=C(/C=C/CCc1ccc(O)c(O)c1)CCc1ccc(O)c(O)c1` [DEHYDROHIRSUTANONOL]: the Activity result in the data set with HSC-T6 [3] is “Dose-dependent effect”; in data set [4] it was “Non-toxic”; in the data set on HSC-T6 [5], “Dose-dependent effect”; in data set [6], 150%; with HSC-T6 [7], “tde”. In data set [2], the IC50 was found to be 14 µM. Further, in the data set with HSC-T6 [8], the result was Active.
As to `C=C(C)[C@@H]1CC[C@]2(CO)CC[C@]3(C)[C@H](CC[C@@H]4[C@@]5(C)C[C@@H](O)[C@H](OC(=O)/C=C/c6ccc(O)c(O)c6)C(C)(C)[C@@H]5CC[C@]43C)[C@@H]12`, the Activity entry in the data set on HSC-T6 [3] was “Dose-dependent effect”; in data set [4] it was “Non-toxic”; in the data set on HSC-T6 [5], “Dose-dependent effect”; in data set [6], 150%; in the data set on HSC-T6 [7] it was “tde”. In data set [2], the IC50 was 23.9 µM. Also, the outcome in the data set on HSC-T6 [8] was Active.
